Assay results taken from ChEMBL document CHEMBL4673225, “Highly Selective PTK2 Proteolysis Targeting Chimeras to Probe Focal Adhesion Kinase Scaffolding Functions” (J Med Chem, 2019).
Activity calls are given as the source filed them. No cut-off for these calls is given here.

Assays:
[1] = test system: HuCCT-1; test: cells; conditions: Homo sapiens, HuCCT-1, 144 h, read-out: pIC50 (converted)
Description: Antiproliferative activity against human HuCCT-1 cells incubated for 6 days by CellTiter-Glo luminescent cell viability assay

[2] = test system: SNU-387; test: cells; conditions: Homo sapiens, SNU-387, 144 h, read-out: pIC50 (converted)
Description: Antiproliferative activity against human SNU-387 cells incubated for 6 days by CellTiter-Glo luminescent cell viability assay

[3] = test system: SNU-423; test: cells; conditions: Homo sapiens, SNU-423, 144 h, read-out: pIC50 (converted)
Description: Antiproliferative activity against human SNU-423 cells incubated for 6 days by CellTiter-Glo luminescent cell viability assay

[4] = cells; conditions: Homo sapiens, HuH-1, 144 h, read-out: pIC50 (converted)
Description: Antiproliferative activity against human HuH-1 cells incubated for 6 days by CellTiter-Glo luminescent cell viability assay

[5] = test system: SK-HEP1; test: cells; conditions: Homo sapiens, SK-HEP1, 144 h, read-out: pIC50 (converted)
Description: Antiproliferative activity against human SK-HEP1 cells incubated for 6 days by CellTiter-Glo luminescent cell viability assay

[6] = cells; conditions: Homo sapiens, Hep3B, 144 h, read-out: pIC50 (converted)
Description: Antiproliferative activity against human Hep3B2.1-7 cells incubated for 6 days by CellTiter-Glo luminescent cell viability assay

[7] = test system: Huh-7; test: cells; conditions: Homo sapiens, Huh-7, 144 h, read-out: pIC50 (converted)
Description: Antiproliferative activity against human Huh-7 cells incubated for 6 days by CellTiter-Glo luminescent cell viability assay

[8] = test system: HLE; test: cells; conditions: Homo sapiens, 144 h, read-out: pIC50 (converted)
Description: Antiproliferative activity against human HLE cells incubated for 6 days by CellTiter-Glo luminescent cell viability assay

[9] = cells; conditions: Homo sapiens, HLF1, 144 h, read-out: pIC50 (converted)
Description: Antiproliferative activity against human HLF1 cells incubated for 6 days by CellTiter-Glo luminescent cell viability assay

[10] = test system: HepG2; test: cells; conditions: Homo sapiens, HepG2, 144 h, read-out: pIC50 (converted)
Description: Antiproliferative activity against human HepG2 cells incubated for 6 days by CellTiter-Glo luminescent cell viability assay

[11] = test system: SNU-398; test: cells; conditions: Homo sapiens, SNU-398, 144 h, read-out: pIC50 (converted)
Description: Antiproliferative activity against human SNU-398 cells incubated for 6 days by CellTiter-Glo luminescent cell viability assay

[12] = target: von Hippel-Lindau disease tumor suppressor/Focal adhesion kinase 1 (Homo sapiens, UniProt Q05397+P40337); test: Protac activity at VHL/PTK2 in human A549 cells assessed as induction of PTK2 degradation at 1 to 100000 nM incubated for 18 hrs by protein capillary electrophoresis method; format: cell-based; conditions: dose 1-100000 nM
von Hippel-Lindau disease tumor suppressor/Focal adhesion kinase 1, sequence (P40337 whole entry partner): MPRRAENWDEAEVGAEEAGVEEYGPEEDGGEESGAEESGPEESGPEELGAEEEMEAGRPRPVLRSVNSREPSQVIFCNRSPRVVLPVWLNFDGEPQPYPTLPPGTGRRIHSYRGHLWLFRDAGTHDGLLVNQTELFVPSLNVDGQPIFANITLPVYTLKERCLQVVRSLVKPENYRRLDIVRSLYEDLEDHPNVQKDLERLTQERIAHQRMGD
von Hippel-Lindau disease tumor suppressor/Focal adhesion kinase 1, sequence (Q05397 2-1052 limits assumed): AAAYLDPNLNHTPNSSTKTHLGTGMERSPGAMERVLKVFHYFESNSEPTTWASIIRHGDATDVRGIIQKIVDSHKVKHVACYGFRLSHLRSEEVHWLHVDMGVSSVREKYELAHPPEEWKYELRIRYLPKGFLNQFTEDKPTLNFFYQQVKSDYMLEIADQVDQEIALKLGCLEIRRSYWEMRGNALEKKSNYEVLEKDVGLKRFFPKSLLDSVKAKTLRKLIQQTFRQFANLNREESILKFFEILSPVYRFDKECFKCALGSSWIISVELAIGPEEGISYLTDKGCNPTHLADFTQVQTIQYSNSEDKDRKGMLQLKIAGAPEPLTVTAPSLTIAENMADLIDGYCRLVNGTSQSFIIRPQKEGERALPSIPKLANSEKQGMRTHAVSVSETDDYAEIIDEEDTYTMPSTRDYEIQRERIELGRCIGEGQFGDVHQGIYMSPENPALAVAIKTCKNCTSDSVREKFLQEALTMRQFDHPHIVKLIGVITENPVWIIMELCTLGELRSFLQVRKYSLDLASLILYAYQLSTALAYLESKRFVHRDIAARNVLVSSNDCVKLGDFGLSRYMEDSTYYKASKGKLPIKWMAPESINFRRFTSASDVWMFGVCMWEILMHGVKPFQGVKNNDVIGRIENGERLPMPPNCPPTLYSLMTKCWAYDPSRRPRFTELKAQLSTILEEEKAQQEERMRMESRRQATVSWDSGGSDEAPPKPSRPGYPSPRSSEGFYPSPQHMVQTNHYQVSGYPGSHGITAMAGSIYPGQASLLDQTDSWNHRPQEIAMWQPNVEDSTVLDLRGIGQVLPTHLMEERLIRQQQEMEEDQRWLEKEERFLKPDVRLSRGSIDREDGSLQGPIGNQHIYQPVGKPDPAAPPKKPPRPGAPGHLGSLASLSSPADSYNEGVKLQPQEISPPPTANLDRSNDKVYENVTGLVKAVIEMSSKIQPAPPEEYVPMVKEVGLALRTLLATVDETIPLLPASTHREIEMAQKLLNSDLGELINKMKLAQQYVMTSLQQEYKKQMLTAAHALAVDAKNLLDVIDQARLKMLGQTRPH

IC50 [1] [µM] | IC50 [2] [µM] | IC50 [3] [µM] | IC50 [4] [µM] | IC50 [5] [µM] | IC50 [6] [µM] | IC50 [7] [µM] | IC50 [8] [µM] | IC50 [9] [µM] | IC50 [10] [µM] | IC50 [11] [µM] | Activity [12] | SMILES
6.31 | 6.31 | 3.98 | 3.98 | 6.31 | 5.01 | 3.98 | 7.94 | 3.98 | 3.16 | 6.31 |  | COc1cc(C(=O)NC2CCN(C)CC2)ccc1Nc1ncc(C(F)(F)F)c(Oc2cccc3c2C(=O)CC3)n1
 |  |  |  |  |  |  |  |  |  |  | inactive | COc1cc(C(=O)NCCOCCOCCOCC(=O)N[C@H](C(=O)N2C[C@@H](O)C[C@H]2C(=O)NCc2ccc(-c3scnc3C)cc2)C(C)(C)C)ccc1Nc1ncc(C(F)(F)F)c(Oc2cccc3c2C(=O)CC3)n1
